The record followed here is PubChem BioAssay AID1918955 (Molecular Pharmacology Branch, DTP, NCI, 2023).

The test system of the assay is NCI/ADR-RES complex spheroid viability. Description: Anticancer human tumor NCI/ADR-RES cell line growth inhibition.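 As to all read-outs here: spheroids exposed to compounds for 7 days.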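 As to viability, T/C: 100% = DMSO vehicle treated spheroids.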 As to conditions: for viability, T/C: stronger effect = lower value. In outline: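 Multicellular complex spheroids of tumor cells with human endothelial cells (HUVEC) and mesenchymal stem cells; the LSD1 inhibitor iadademstat was combined with standard-of-care or investigational agents. Top concentration at or near clinical Cmax, half-log dilutions; final DMSO ≤0.25%.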

[1] abbreviates: curve of first compound, second compound 0.1 µM.
Setting [2] is: curve of first compound, second compound 0.316 µM.
Setting [3] is: curve of first compound, second compound 1 µM.
The mark [4] stands for this setting: curve of first compound, second compound 3.16 µM.
The mark [5] stands for this setting: curve of first compound, second compound 10 µM.
The mark [6] stands for this setting: second compound 0.1 µM, first compound 0.00949 µM.
Where [7] appears, read: second compound 0.1 µM, first compound 0.03 µM.
[8] abbreviates: second compound 0.1 µM, first compound 0.0949 µM.
[9] abbreviates: second compound 0.1 µM, first compound 0.3 µM.
Where [10] appears, read: second compound 0.316 µM, first compound 0.00949 µM.
Where [11] appears, read: second compound 0.316 µM, first compound 0.03 µM.
Setting [12] is: second compound 0.316 µM, first compound 0.0949 µM.
Where [13] appears, read: second compound 0.316 µM, first compound 0.3 µM.
The mark [14] stands for this setting: second compound 1 µM, first compound 0.00949 µM.
Setting [15] is: second compound 1 µM, first compound 0.03 µM.
The mark [16] stands for this setting: second compound 1 µM, first compound 0.0949 µM.
[17] abbreviates: second compound 1 µM, first compound 0.3 µM.
[18] abbreviates: second compound 3.16 µM, first compound 0.00949 µM.
[19] abbreviates: second compound 3.16 µM, first compound 0.03 µM.
Setting [20] is: second compound 3.16 µM, first compound 0.0949 µM.
Where [21] appears, read: second compound 3.16 µM, first compound 0.3 µM.
Where [22] appears, read: second compound 10 µM, first compound 0.00949 µM.
Where [23] appears, read: second compound 10 µM, first compound 0.03 µM.
The mark [24] stands for this setting: second compound 10 µM, first compound 0.0949 µM.
The mark [25] stands for this setting: second compound 10 µM, first compound 0.3 µM.
[26] abbreviates: second compound 0.1 µM, first compound 0.949 µM.
The mark [27] stands for this setting: second compound 0.1 µM, first compound 3 µM.
Setting [28] is: second compound 0.316 µM, first compound 0.949 µM.
Where [29] appears, read: second compound 0.316 µM, first compound 3 µM.
Setting [30] is: second compound 1 µM, first compound 0.949 µM.
The mark [31] stands for this setting: second compound 1 µM, first compound 3 µM.
Setting [32] is: second compound 3.16 µM, first compound 0.949 µM.
Setting [33] is: second compound 3.16 µM, first compound 3 µM.
Where [34] appears, read: second compound 10 µM, first compound 0.949 µM.
[35] abbreviates: second compound 10 µM, first compound 3 µM.

The pIC50 is the IC50 on a negative log10 scale, so that one unit is a factor of ten. A word on the viability, T/C: it is the result in the treated group divided by that in the control group, in per cent.

pIC50: −log10 of the molar value. Values joined by “and” are separate entries in the source; they are usually repeats but may differ in a detail not shown here. Equal values may be shown once.

`Nc1ccn(C2OC(CO)C(O)C2(F)F)c(=O)n1` (stereo unspecified) + NC1CC1c1ccc(-c2cccc(O)c2)cc1: the pIC50 is, setting by setting: under setting [1], more than 9.02; under setting [2], more than 9.02; under setting [3], more than 9.02; under setting [4], more than 9.02; under setting [5], more than 9.02. Also, the viability, T/C was 2.63% (second compound 0.1 µM, first compound 0.000949 µM); 2.71% (second compound 0.1 µM, first compound 0.003 µM); 2.9% under setting [6]; 2.13% under setting [7]; 1.39% under setting [8]; 0.69% under setting [9]. The viability, T/C (second compound 0.316 µM, first compound 0.000949 µM) was 2.24%; the viability, T/C (second compound 0.316 µM, first compound 0.003 µM) is 2.81%; the viability, T/C under setting [10] is 2.22%; the viability, T/C under setting [11] was 1.81%; the viability, T/C under setting [12] is 1.11%; the viability, T/C under setting [13] is 0.86%. Further, the viability, T/C by setting is: (second compound 1 µM, first compound 0.000949 µM) 2.39%; (second compound 1 µM, first compound 0.003 µM) 2.3%; under setting [14], 2.24%; under setting [15], 2.16%; under setting [16], 1.32%; under setting [17], 0.73%. Further, the viability, T/C by setting is: (second compound 3.16 µM, first compound 0.000949 µM) 2.52%; (second compound 3.16 µM, first compound 0.003 µM) 2.29%; under setting [18], 2.22%; under setting [19], 2.18%; under setting [20], 1.17%; under setting [21], 0.8%. Also, the viability, T/C is 2.57% (second compound 10 µM, first compound 0.000949 µM); 2.57% (second compound 10 µM, first compound 0.003 µM); 3.02% under setting [22]; 2.33% under setting [23]; 1.52% under setting [24]; 1% under setting [25].
For the compound `O=C(C=Cc1cccc(S(=O)(=O)Nc2ccccc2)c1)NO` + NC1CC1c1ccc(-c2cccc(O)c2)cc1, the pIC50 is, setting by setting: under setting [1], 7.10; under setting [2], 7.07; under setting [3], 7.10; under setting [4], 7.05; under setting [5], 7.13. In addition, the viability, T/C by setting is: under setting [6], 110%; under setting [7], 85.7%; under setting [8], 42.1%; under setting [9], 17.2%; under setting [26], 5.63%; under setting [27], 1.57%. The viability, T/C was 102% under setting [10]; 86.8% under setting [11]; 44.9% under setting [12]; 17.3% under setting [13]; 7.86% under setting [28]; 1.94% under setting [29]. In addition, the viability, T/C is 107% under setting [14]; 77.5% under setting [15]; 46% under setting [16]; 18.2% under setting [17]; 8.7% under setting [30]; 1.47% under setting [31]. The viability, T/C was 97% under setting [18]; 76.4% under setting [19]; 49.8% under setting [20]; 22.1% under setting [21]; 9.4% under setting [32]; 1.58% under setting [33]. Also, the viability, T/C is, setting by setting: under setting [22], 102%; under setting [23], 71.5%; under setting [24], 44.1%; under setting [25], 22.5%; under setting [34], 13.5%; under setting [35], 3.92%.
In the case of `CC(C)CC(NC(=O)CNC(=O)c1cc(Cl)ccc1Cl)B1OC(=O)CC(CC(=O)O)(C(=O)O)O1` (stereo unspecified), the viability, T/C is 98% and 97.7% (compound 0.000316 µM); 105% and 96.7% (compound 0.001 µM); 103% and 105% (compound 0.00316 µM); 71.3% and 79.3% (compound 0.01 µM); 45.7% and 33.5% (compound 0.0316 µM); 4.13% and 1.05% (compound 0.1 µM). The negative-log IC50 (pIC50) (curve of compound) is 7.60 and 7.68.
For `CCN(c1cc(-c2ccc(CN3CCOCC3)cc2)cc(C(=O)NCc2c(C)cc(C)[nH]c2=O)c1C)C1CCOCC1` + NC1CCC(NC2CC2c2ccccc2)CC1, the pIC50 is, setting by setting: under setting [1], less than 5.52; under setting [2], less than 5.52; under setting [3], less than 5.52; under setting [4], less than 5.52; under setting [5], less than 5.52. Besides, the viability, T/C by setting is: under setting [6], 92.4%; under setting [7], 92.5%; under setting [8], 98.1%; under setting [9], 98.1%; under setting [26], 92.8%; under setting [27], 89.3%. For the same compound, the viability, T/C is, setting by setting: under setting [10], 94.6%; under setting [11], 97.9%; under setting [12], 96.9%; under setting [13], 95%; under setting [28], 91.4%; under setting [29], 81.5%. The viability, T/C was 104% under setting [14]; 99.5% under setting [15]; 93.8% under setting [16]; 99% under setting [17]; 95.7% under setting [30]; 89.2% under setting [31]. Moreover, the viability, T/C is 89.4% under setting [18]; 98% under setting [19]; 94% under setting [20]; 96% under setting [21]; 87.6% under setting [32]; 89% under setting [33]. In addition, the viability, T/C is, setting by setting: under setting [22], 91.9%; under setting [23], 89.8%; under setting [24], 88.2%; under setting [25], 86.1%; under setting [34], 90.1%; under setting [35], 80.9%.
Turning to `COc1ccc([C@@H](O)c2cc(-c3ncnc4cc(N5CCOCC5)ccc34)c(F)cc2Cl)nn1`, the viability, T/C is 106% (compound 0.0316 µM); 99.9% and 99.3% (compound 0.1 µM); 87.1% and 94.3% (compound 0.316 µM); 77.2% and 72.6% (compound 1 µM); 52.9% and 49.2% (compound 3.16 µM); 28.3% and 28% (compound 10 µM). Further, the pIC50 (curve of compound) is 5.42 and 5.53.
As to `COc1cc(C2c3cc4c(cc3C(OC3OC5COC(C)OC5C(O)C3O)C3COC(=O)C23)OCO4)cc(OC)c1O` (stereo unspecified) + NC1CCC(NC2CC2c2ccccc2)CC1, the pIC50 under setting [1] was less than 5.52; the pIC50 under setting [2] was less than 5.52; the pIC50 under setting [3] is less than 5.52; the pIC50 under setting [4] is less than 5.52; the pIC50 under setting [5] is less than 5.52. Moreover, the viability, T/C is, setting by setting: under setting [6], 92.9%; under setting [7], 103%; under setting [8], 99.4%; under setting [9], 100%; under setting [26], 98.3%; under setting [27], 91.1%. Further, the viability, T/C runs as follows: under setting [10], 101%; under setting [11], 101%; under setting [12], 103%; under setting [13], 100%; under setting [28], 95.6%; under setting [29], 94.4%. Besides, the viability, T/C under setting [14] is 98.8%; the viability, T/C under setting [15] was 96.5%; the viability, T/C under setting [16] is 95.8%; the viability, T/C under setting [17] was 96.6%; the viability, T/C under setting [30] is 94.7%; the viability, T/C under setting [31] was 91.3%. The viability, T/C under setting [18] was 96.9%; the viability, T/C under setting [19] was 91.8%; the viability, T/C under setting [20] was 99.2%; the viability, T/C under setting [21] is 97.3%; the viability, T/C under setting [32] is 94.5%; the viability, T/C under setting [33] was 86.1%. The viability, T/C by setting is: under setting [22], 93%; under setting [23], 92%; under setting [24], 86.3%; under setting [25], 90.3%; under setting [34], 81.6%; under setting [35], 82%.
For `CC1COCCN1c1cc(C2(S(C)(=N)=O)CC2)nc(-c2ccnc3[nH]ccc23)n1` (stereo unspecified), the viability, T/C (compound 0.0316 µM) is 101% and 106%; the viability, T/C (compound 0.1 µM) was 96% and 110%; the viability, T/C (compound 0.316 µM) is 93.8% and 98.5%; the viability, T/C (compound 1 µM) is 91.3% and 86.3%; the viability, T/C (compound 3.16 µM) was 72% and 71.1%; the viability, T/C (compound 10 µM) is 57.2% and 43.1%. In addition, where the note is “curve of compound”, the negative-log IC50 (pIC50) was < 5.00 and 5.13.
